One assay deals with PIP4K2C (Homo sapiens, UniProt Q8TBX8). Nature of the assay: NanoBRET target engagement in living HEK293 cells. It counts as cell-based.
For another assay, the target named is T1, AURKA (Homo sapiens, UniProt O14965).
T1 sequence (O14965 1-403): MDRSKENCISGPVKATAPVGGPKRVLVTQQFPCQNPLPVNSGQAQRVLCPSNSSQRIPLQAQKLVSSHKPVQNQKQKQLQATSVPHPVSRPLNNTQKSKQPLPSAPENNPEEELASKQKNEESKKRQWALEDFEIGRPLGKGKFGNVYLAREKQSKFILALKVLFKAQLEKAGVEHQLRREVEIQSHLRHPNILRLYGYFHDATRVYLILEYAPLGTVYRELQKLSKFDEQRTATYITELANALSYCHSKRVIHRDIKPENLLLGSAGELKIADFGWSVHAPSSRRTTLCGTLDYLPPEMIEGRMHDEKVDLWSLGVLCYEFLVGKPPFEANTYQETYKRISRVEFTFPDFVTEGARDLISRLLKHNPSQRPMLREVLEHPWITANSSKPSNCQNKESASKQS
Nature of the assay: single-temperature TPP with PRM-MS in K562 lysate. It counts as cell-based.

The target of another assay is T2, GRK2 (Homo sapiens, UniProt P25098).
T2 sequence (P25098 1-689): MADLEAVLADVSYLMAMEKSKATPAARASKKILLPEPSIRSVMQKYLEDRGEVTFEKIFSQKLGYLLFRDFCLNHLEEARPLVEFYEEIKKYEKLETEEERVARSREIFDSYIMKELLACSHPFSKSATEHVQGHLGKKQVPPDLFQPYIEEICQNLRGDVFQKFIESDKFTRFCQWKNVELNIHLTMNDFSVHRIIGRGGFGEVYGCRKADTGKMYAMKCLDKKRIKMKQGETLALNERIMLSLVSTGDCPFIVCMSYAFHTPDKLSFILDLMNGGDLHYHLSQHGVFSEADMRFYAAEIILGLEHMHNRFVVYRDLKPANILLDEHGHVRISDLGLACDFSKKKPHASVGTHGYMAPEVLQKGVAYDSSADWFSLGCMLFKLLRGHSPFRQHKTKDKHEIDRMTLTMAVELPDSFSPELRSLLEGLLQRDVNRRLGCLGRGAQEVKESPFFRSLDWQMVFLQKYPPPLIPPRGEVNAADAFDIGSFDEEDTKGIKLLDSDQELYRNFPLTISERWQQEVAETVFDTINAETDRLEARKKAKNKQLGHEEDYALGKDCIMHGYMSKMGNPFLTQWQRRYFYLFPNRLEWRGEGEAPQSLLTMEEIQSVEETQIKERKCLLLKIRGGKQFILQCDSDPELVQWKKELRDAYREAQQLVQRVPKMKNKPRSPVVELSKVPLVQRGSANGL
The experiment in a line: western blot CETSA, isothermal dose-response at […] °C. It counts as biochemical.

Results on three molecules are retold here after PMC10882491 (Chemical Science, 2024).

The structures appear in SMILES notation.

Sequence of PIP4K2C (Q8TBX8 2-421): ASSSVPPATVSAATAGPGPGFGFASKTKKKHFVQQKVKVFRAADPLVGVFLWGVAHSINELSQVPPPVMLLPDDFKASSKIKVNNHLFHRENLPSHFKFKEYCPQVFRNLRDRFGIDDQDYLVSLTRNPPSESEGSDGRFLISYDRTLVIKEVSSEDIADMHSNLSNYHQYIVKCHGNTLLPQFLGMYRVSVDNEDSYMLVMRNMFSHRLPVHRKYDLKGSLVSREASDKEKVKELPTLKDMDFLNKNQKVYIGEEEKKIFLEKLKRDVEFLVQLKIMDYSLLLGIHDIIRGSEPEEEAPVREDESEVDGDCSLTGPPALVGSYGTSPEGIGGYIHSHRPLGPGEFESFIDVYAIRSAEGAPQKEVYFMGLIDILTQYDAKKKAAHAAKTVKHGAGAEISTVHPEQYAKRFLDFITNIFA

In turn, `NC(=O)c1nc(Nc2ccccc2)sc1NC(=O)C1CCCCC1` [UNC3230] yielded an IC50 against PIP4K2C of 0.25 µM.

Consider `COc1cc(Nc2ncc3c(n2)-c2ccc(Cl)cc2C(c2c(F)cccc2OC)=NC3)ccc1C(=O)O` [alisertib], for which the “single-temperature TPP with PRM-MS in K562 lysate” value at AURKA is recorded as “PRM data confirmed that all of these targets exhibit significantly higher abundance in the drug treatment groups”. Molecule `Cc1nc2ccc(CN(C)c3ccc(C(=O)N[C@@H](CCC(=O)O)C(=O)O)s3)cc2c(=O)[nH]1` [raltitrexed] had a half-inhibitory concentration (IC50) at GRK2 of 6.7 µM.
